Where two headings read alike, the source gives them in different places.
Columns and labels:
[1] = system: human non-small cell lung cancer cell strain A549; assay: MTT proliferation inhibition, A549; type: cell-based; conditions: A549 cells, 48 h, read-out: Inhibitory activity (IC50) against proliferation, A549
Protocol: (§1) The anti-tumor activity of the compounds of the present invention was determined by the method of methyl thiazolyl tetrazolium (MTT), Bardoxolone Methyl (CDDO-Me) being selected as a positive control medicament.
(§2) Instruments: ultra-clean bench (SW-CJ-1FD, AIRTECH, Suzhou Antai Airtech Co. Ltd.), constant-temperature CO2 incubator (3111, Thermo, USA), inverted biomicroscope (IX71, OLYMPUS, Japan), ELISA microplate reader (Model 680, BIO-RAD, USA), platform shaker (Kylin-bell lab Instruments), autoclave (YXO.SG4I.280, Shanghai Huaxian), and centrifuge (SIGMA).
(§3) Reagents: DMEM (GIBCO), fetal bovine serum (GIBCO), trypsin (SIGMA), and DMSO (SIGMA).
(§4) Cell strains: human non-small cell lung cancer cell strain A549, human liver cancer cell strain HepG2, human breast cancer cell strain MCF-7, human renal tubular epithelial cells HK-2, rat embryonic cardiomyocytes H9C2 (all provided by Jiangsu KeyGEN BioTECH Co., Ltd.).
(§5) Methods: the cryopreserved cell strains were resuscitated and cultured in a CO2 incubator at a constant temperature of 37° C. with liquid being changed once daily. Plating was carried out when the cell strains were in a good state in the exponential phase. 1 mL of 0.25% trypsin solution was added for digestion for 1-2 min. The cell status was observed under the microscope, and when the adherent cells became round and shrunk, the digestion solution was aspirated and 1-2 mL of a DMEM medium containing 10% fetal bovine serum was added to obtain a cell suspension, on which a cell count was performed. The amount of required cell suspension was calculated on the basis of 5×10^4 cells per well and the total number of wells. The cell suspension was inoculated on a 96-well plate at 100 μL/well, the surroundings being blocked with PBS, followed by incubation in a CO2 incubator at a constant temperature of 37° C. for 24 h.
(§6) The test medicament, positive control medicament CDDO-Me, and blank control group DMSO were prepared in DMEM media to a final concentration of 5 μM/well, each medicament being placed in 3 replicate wells, followed by incubation for 48 h. The MTT reagent was added to the 96-well plate at 10 μL/well to further incubate for 4 h. The medium in the plate was aspirated and 100 μL of DMSO was added to each well, followed by shaking on the platform shaker for 10 min such that the crystals were dissolved. The absorbance of each well was examined by the ELISA microplate reader at a wavelength of 570 nm, and the cell inhibition rate was calculated according to the formula hereinafter. The mean value of three preliminary screening results was taken as the final inhibition rate thereof.
(§7) Cell inhibition rate (%)=[(OD value of blank control−OD value of dosing cohort)/OD value of blank control group]×100%

[2] = system: human breast cancer cell strain MCF-7; assay: MTT proliferation inhibition, MCF-7; type: cell-based; conditions: 48 h, read-out: Inhibitory activity (IC50) against proliferation, MCF-7
Protocol: as §1, §2, §3, §4, §5, §6, §7

[3] = system: human liver cancer cell strain HepG2; assay: MTT proliferation inhibition, HepG2; type: cell-based; conditions: HepG2 cells, 48 h, read-out: Inhibitory activity (IC50) against proliferation, HepG2
Protocol: as §1, §2, §3, §4, §5
The MTT reagent was added to the 96-well plate at 10 μL/well to further incubate for 4 h. The medium in the plate was aspirated and 100 μL of DMSO was added to each well, followed by shaking on the platform shaker for 10 min such that the crystals were dissolved. […] The mean value of three preliminary screening results was taken as the final inhibition rate thereof.
as §7

[4] = system: human renal tubular epithelial cells HK-2; assay: MTT proliferation inhibition / toxicity, HK-2; type: cell-based; conditions: for IC50: HK-2 cells, MTT, 48 h, read-out: Inhibitory activity (IC50) against proliferation, HK-2; for toxicity to human renal tubular epithelial cells HK-2: statement in words
Protocol: as §1, §2, §3, §4, §5, §6, §7

[5] = system: rat embryonic cardiomyocytes H9C2; assay: MTT proliferation inhibition / toxicity, H9C2; type: cell-based; conditions: for IC50: H9C2 cardiomyocytes, MTT, 48 h, read-out: Inhibitory activity (IC50) against proliferation, H9C2
Protocol: as §1, §2, §3, §4, §5, §6, §7

S180 ascitic tumor cells = assay: Inhibitory effect on tumors in S180 tumor-bearing mice; type: in vivo, ICR mice; conditions: for Tumor Mass / Tumor inhibition rate: 7 consecutive days; for Splenic index: 7 days
Protocol: (§8) 1) Experimental animals: 72 female ICR mice between 6 and 8 weeks of age; experimental cells: S180 ascitic tumor cells.
(§9) 8 animals were used as the normal group, and the rest of the mice were subjected to modeling by the following method.
(§10) 2) Proliferation and passaging of S180 ascitic tumor cells: S180 ascitic tumor cells cryopreserved at −80° C. were thawed in a water bath at 37° C., placed in a 12 mL centrifuge tube, to which an appropriate amount of saline was added, and centrifuged at 1200 rpm for 5 min. The supernatant was discarded, then the cells were resuspended in 300 μL of saline and intraperitoneally injected into an ICR mouse. As the mouse's abdomen swelled up, intraperitoneal injection of the cells in a second ICR mouse was performed, and the cells were ready for inoculation when the abdomen thereof swelled up.
(§11) 3) Inoculation of S180 tumor cells in the armpit of mice: S180 cells cultured to 2 passages were centrifuged and saline was added to obtain a concentration of 1×10^7 cells/mL. A volume of 100 μL of the cells were injected subcutaneously into armpit of mice. A mouse tumor-bearing model was developed.
(§12) The model mice were divided into a tumor-bearing model group, a compound I-7 5 mg/kg group, a compound I-7 15 mg/kg group, a compound I-12 5 mg/kg group, a compound I-12 15 mg/kg group, a compound I-16 5 mg/kg group, a compound I-16 15 mg/kg group and a CDDO-Me 15 mg/kg group.
(§13) There were 8 mice in each group.
(§14) 4) Dosing: the medicaments were administered intragastrically when the tumor grew out.
Compound I-7 of 5 mg/kg was administered in the compound I-7 5 mg/kg group;
compound I-7 of 15 mg/kg was administered in the compound I-7 15 mg/kg group;
compound I-12 of 5 mg/kg was administered in the compound I-12 5 mg/kg group;
compound I-12 of 15 mg/kg was administered in the compound I-12 15 mg/kg group;
compound I-16 of 5 mg/kg was administered in the compound I-16 5 mg/kg group;
compound I-16 of 15 mg/kg was administered in the compound I-16 15 mg/kg group; and
CDDO-Me of 15 mg/kg was administered in the CDDO-Me 15 mg/kg group.
(§15) An equal volume of 0.5% croscarmellose sodium was administered to the normal group and the model group.
(§16) The dosing was executed for 7 consecutive days. The mice were dissected the next day following the last dosing.
(§17) Testing items: the body weight, spleen weight and tumor weight were measured. The spleens were ground on ice, followed by red blood cell lysis and incubation with FITC-CD11b, LY6C, and LY6G antibodies for 15 min, and then tested for CD11b+LY6Chi+ and CD11b+LY6G+ with flow cytometry.

M-MDSC, PMN-MDSC = assay: Spleen M-MDSC / PMN-MDSC by flow cytometry in S180 tumor-bearing mice; type: in vivo, ICR mice; conditions: 7 days; for M-MDSC: CD11b+LY6Chi+; for PMN-MDSC: CD11b+LY6G+
Protocol: as §8, §9, §10, §11, §12, §13, §14, §15, §16, §17

[6] = Homo sapiens, MCF7, MCF-7 cells

SMILES | IC50 ([1]; Homo sapiens) [nM] | IC50 [2, 6] [nM] | IC50 ([3]; Homo sapiens) [nM] | IC50 ([4]; Homo sapiens) [nM] | toxicity to human renal tubular epithelial cells HK-2 [4] | IC50 ([5]; Rattus norvegicus) [nM] | other results
COC(=O)[C@]12CCC(C)(C)C[C@H]1[C@H]1C(=O)C=C3[C@@]4(C)C=C(C#N)C(=O)C(C)(C)[C@@H]4CC[C@@]3(C)[C@]1(C)CC2 [CDDO-Me, 2-cyano-3,12-dioxoolean-1,9(11)-dien-28-oic acid methyl ester, reference compound] |  |  |  |  |  |  | IC50 [1]: 448 ± 12 nM; IC50 ([2]; MCF-7 cells): 728 ± 288 nM; IC50 [3]: 326 ± 21 nM; IC50 [4]: 335 ± 34 nM; IC50 [5]: 308 ± 10 nM; Tumor Mass (S180 ascitic tumor cells; 15 mg/kg intragastric): 1.67 ± 0.14 g; Tumor inhibition rate (S180 ascitic tumor cells; 15 mg/kg intragastric): 36.75%; Splenic index (S180 ascitic tumor cells; 15 mg/kg intragastric): 53.61 ± 4.15 10*mg/g; M-MDSC (M-MDSC, PMN-MDSC; 15 mg/kg intragastric): 1.15 ± 0.12 %; PMN-MDSC (M-MDSC, PMN-MDSC; 15 mg/kg intragastric): 10.91 ± 1.62 %
CC1(C)CC[C@]2(NC(=O)/C=C/c3ccc(C(F)(F)F)cc3)CC[C@]3(C)[C@H](C(=O)C=C4[C@@]5(C)C=C(C#N)C(=O)C(C)(C)[C@@H]5CC[C@]43C)[C@@H]2C1 [Compound I-4] | 402 ± 20 | 562 ± 132 | 412 ± 6 | 516 ± 72 | lower toxicity | 215 ± 4 | 
CC1(C)CC[C@]2(NC(=O)/C=C/c3ccccc3)CC[C@]3(C)[C@H](C(=O)C=C4[C@@]5(C)C=C(C#N)C(=O)C(C)(C)[C@@H]5CC[C@]43C)[C@@H]2C1 [Compound I-1] | 599 ± 377 | 574 ± 21 | 409 ± 16 | 799 ± 92 | lower toxicity | 251 ± 8 | 
CC1(C)CC[C@]2(NC(=O)/C(C#N)=C/c3ccccc3)CC[C@]3(C)[C@H](C(=O)C=C4[C@@]5(C)C=C(C#N)C(=O)C(C)(C)[C@@H]5CC[C@]43C)[C@@H]2C1 [Compound I-7] | 315 ± 68 | 2225 ± 22 | 2720 ± 36 | 1780 ± 259 | lower toxicity |  | IC50 [5]: 3170 ± 1740 nM; IC50 ([5]; Rattus norvegicus, H9c2, 48 h): 3180 ± 1740 nM; inhibitory activity against normal cardiomyocytes H9C2 relative to CDDO-Me ([5]; fraction of the inhibitory activity of CDDO-Me): approximately 1/10; Tumor Mass (S180 ascitic tumor cells; 5 mg/kg intragastric): 1.53 ± 0.10 ^ g; Tumor inhibition rate (S180 ascitic tumor cells; 5 mg/kg intragastric): 42.17%; Splenic index (S180 ascitic tumor cells; 5 mg/kg intragastric): 48.55 ± 4.62^##* 10*mg/g; Tumor Mass (S180 ascitic tumor cells; 15 mg/kg intragastric): 1.45 ± 0.12 g; Tumor inhibition rate (S180 ascitic tumor cells; 15 mg/kg intragastric): 45.20%; Splenic index (S180 ascitic tumor cells; 15 mg/kg intragastric): 47.03 ± 6.54^##* 10*mg/g; M-MDSC (M-MDSC, PMN-MDSC; 5 mg/kg intragastric): 0.68 ± 0.22 %; PMN-MDSC (M-MDSC, PMN-MDSC; 5 mg/kg intragastric): 8.72 ± 1.13 %; M-MDSC (M-MDSC, PMN-MDSC; 15 mg/kg intragastric): 0.59 ± 0.09 %; PMN-MDSC (M-MDSC, PMN-MDSC; 15 mg/kg intragastric): 6.34 ± 1.47 %
Cc1ccc(/C=C/C(=O)N[C@]23CCC(C)(C)C[C@H]2[C@H]2C(=O)C=C4[C@@]5(C)C=C(C#N)C(=O)C(C)(C)[C@@H]5CC[C@@]4(C)[C@]2(C)CC3)cc1 [Compound I-2] | 549 ± 10 | 547 ± 74 | 772 ± 63 | 1390 ± 32 | lower toxicity | 218 ± 7 | 
Cc1ccc(/C=C(\C#N)C(=O)N[C@]23CCC(C)(C)C[C@H]2[C@H]2C(=O)C=C4[C@@]5(C)C=C(C#N)C(=O)C(C)(C)[C@@H]5CC[C@@]4(C)[C@]2(C)CC3)cc1 [Compound I-8] | 329 ± 47 | 789 ± 52 | 563 ± 23 | 423 ± 30 | lower toxicity | 274 ± 2 | 
COc1ccc(/C=C(\C#N)C(=O)N[C@]23CCC(C)(C)C[C@H]2[C@H]2C(=O)C=C4[C@@]5(C)C=C(C#N)C(=O)C(C)(C)[C@@H]5CC[C@@]4(C)[C@]2(C)CC3)cc1 [Compound I-9] | 624 ± 111 | 1130 ± 40 | 816 ± 14 | 748 ± 341 | lower toxicity | 417 ± 19 | 
CC1(C)CC[C@]2(NC(=O)/C(C#N)=C/c3ccc(F)cc3)CC[C@]3(C)[C@H](C(=O)C=C4[C@@]5(C)C=C(C#N)C(=O)C(C)(C)[C@@H]5CC[C@]43C)[C@@H]2C1 [Compound I-11] | 609 ± 67 | 424 ± 129 | 337 ± 12 | 308 ± 71 |  | 52 ± 1 | 
